Measurements as given in patent EP0332387B1, “Triazole derivatives, their preparation and their use as fungicides” (Sankyo Company Limited, priority 1988, dated 1989).

Experiments:
Assay type in all cases: in vivo
Gibberella Fujikuroi = experiment: Activity against bakanae disease of rice plants by seed soaking (Experiment 5); design: key: 0 = disease as untreated, 5 = no disease (complete control); settings: infected rice seeds (variety Tanginbozu) immersed 3 days in aqueous suspension (concentration not given), 3 weeks; number of diseased seedlings
Method: Ten grams of rice seeds (variety Tanginbozu), infected with Gibberella Fujikuroi, were immersed in 20 ml of an aqueous suspension of the test compound for 3 days. At the end of this time, the treated seeds were densely sown in soil in pots, and the pots were placed in a greenhouse at 20 - 30 °C for 3 weeks. The disease controlling index was given on the basis of the number of diseased seedlings.
(§1) The compounds tested have the formula (1-1), in which Ar represents the group shown at the beginning of each part of the Table and R^1, R^2, X and Y are as defined in the Table.
(§2) The disease controlling index shown in the foregoing Tables 11 to 19 is indicated by the following codes: • 5--no disease (complete control) • 4--disease rate is less than 10% of the untreated plant • 3--disease rate is 10% - 30% of the untreated plant • 2--disease rate is 30% - 50% of the untreated plant • 1--disease rate is 50% - 70% of the untreated plant • 0--disease rate is almost same as the untreated plant.

Rhizoctonia solani [1] = experiment: Preventive activity against sheath blight of rice plants (Experiment 2); design: key: 0 = disease as untreated, 5 = no disease (complete control); settings: rice seedlings (variety Nihonbare), sprayed at 100 ppm (30 ml/3 pots) 24 hours before inoculation, 5 days; height of the lesions
Method: Rice seedlings (variety Nihonbare) at the 4 - 5 leaf stage were sprayed with an aqueous suspension of the test compound at a concentration of 100 ppm (30 ml/3 pots). The seedlings were then kept for 24 hours at room temperature, after which they were inoculated with the fungus, Rhizoctonia solani, by placing 4 - 5 oat grains on which the fungus had previously been cultured around the base of each seedling. The seedlings were then kept in a moist chamber for 5 days at 25 - 27 °C. The disease controlling index was given on the basis of the height of the lesions formed on the rice seedlings.
Except in Table 12G, the compounds tested have the formula (1-1), in which Ar represents the group shown at the beginning of each part of the Table and R^1, R^2, X and Y are as defined in the Table.
as §2

Venturia inaequalis = experiment: Preventive activity against apple scab (Experiment 9); settings: for Index (disease controlling index): apple seedlings sprayed at 300 ppm, inoculated after 24 hours, 3 days moist chamber then 10 days greenhouse, diseased area on third and fourth leaves
Method: Apple seedlings at the 3 - 4 leaf stage were sprayed with an aqueous suspension of the test compound at a concentration of 300 ppm (30 ml/3 pots). The seedlings were then kept for 24 hours at room temperature, after which they were inoculated with the fungus, Venturia inaequalis, by spraying a spore suspension of the fungus over the seedlings. After inoculation, the seedlings were kept in a moist chamber for 3 days at 20 - 22 °C and then moved to a greenhouse at 20 - 22°C for 10 days. The disease controlling index was given on the basis of the diseased area on the third and fourth leaves.

Sphaerotheca fuliginea = experiment: Preventive activity against powdery mildew of cucumber (Experiment 8); settings: cucumber seedlings sprayed at 300 ppm, inoculated after 24 hours, evaluated after 7 days in greenhouse; diseased area on third and fourth leaves
Method: Cucumber seedlings (variety Sagamihanpaku) at the 3 - 4 leaf stage were sprayed with an aqueous suspension of the test compound at a concentration of 300 ppm (30 ml/3 pots). The seedlings were then kept for 24 hours at room temperature, after which they were inoculated with conidida of Sphaerotheca fuliginea. After keeping the seedlings in a greenhouse for 7 days, the disease controlling index was evaluated on the basis of the diseased area on the third and fourth leaves.

Rhizoctonia solani [2] = experiment: Preventive activity against sheath blight of rice plants by submerged application (Experiment 4); settings: rice seedlings (variety Nihonbare), applied to the water in the pots, 100 g per 10 ares, inoculated after 7 days, 5 days; height of the lesions
Text: Rice seedlings (variety Nihonbare) at the 4 - 5 leaf stage grown in pots were flooded to a depth of 1 cm with water. The test compound was then applied to the water in the pots in an amount corresponding to 100 g per 10 ares. After keeping the seedlings in a greenhouse for 7 days, the water was drained from the pots and the seedlings were inoculated with the fungus, Rhizoctonia solani, by placing 4 - 5 oat grains on which the fungus had previously been cultured around the base of each seedling. The seedlings were then kept in a moist chamber for 5 days at 25 - 27 °C. The disease controlling index was given on the basis of the height of the lesions formed on the rice seedlings.
Except for Table 14F, the compounds tested have the formula (1-1), in which Ar represents the group shown at the beginning of each part of the Table and R^1, R^2, X and Y are as defined in the Table.
as §2

Pyricularia oryzae = settings: rice seedlings (variety Sachikaze), sprayed 24 hours after inoculation at 10 ppm (30 ml/3 pots), further 6 days; number of lesions on the upper two leaves
[3] = tested on: Erysiphe graminis f.sp. hordei; experiment: Curative activity against powdery mildew of barley (Experiment 7); settings: barley seedlings (variety Sekishinriki), sprayed one day after inoculation at 3 ppm (30 ml/3 pots), further 10 days; diseased area on the first leaf
Method: Barley seedlings (variety […]) at the first leaf stage were inoculated with conidia of Erysiphe graminis f.sp. hordei and kept in a greenhouse at 15 - 20°C. After one day, the seedlings were sprayed with an aqueous suspension of the test compound at a concentration of 3 ppm (30 ml/3 pots), and they continued to be kept in the greenhouse at that temperature for a further 10 days. The disease controlling index was given on the basis of the diseased area on the first leaf.

Puccinia recondita = experiment: Curative activity against leaf rust of wheat (Experiment 6); settings: wheat seedlings (variety Norin No 61), sprayed after inoculation at 3 ppm (30 ml/3 pots), 10 days; diseased area on the first leaf
Method: Wheat seedlings (variety Norin No 61) at the first leaf stage were inoculated with the fungus, Puccinia recondita, by spraying them with a spore suspension of the fungus. They were then kept in a moist chamber for 24 hours at 20 - 22 °C, after which they were moved to a greenhouse at 15 - 20 °C. […] The seedlings were then continuously kept in the greenhouse for 10 days. The disease controlling index was given on the basis of diseased area on the first leaf.

Rhizoctonia solani [4] = experiment: Curative activity against sheath blight of rice plants (Experiment 3); design: key: 0 = disease as untreated, 5 = no disease (complete control); settings: rice seedlings (variety Nihonbare), sprayed 24 hours after inoculation at 10 ppm (30 ml/3 pots), further 5 days; height of the lesions
Method: Rice seedlings (variety Nihonbare) at the 4 - 5 leaf stage were inoculated with the fungus, Rhizoctonia solani, by placing 4 - 5 oat grains on which the fungus had previously been cultured around the base of each rice seedling and keeping them in a moist chamber at 25 - 27 °C. After 24 hours, the rice seedlings were sprayed with an aqueous suspension of the test compound at a concentration of 10 ppm (30 ml/3 pots) and they then continued to be kept in the moist chamber for a further 5 days. The disease controlling index was given on the basis of the height of the lesions formed on the rice seedlings.
as §1, §2

Compound | disease controlling index (Gibberella Fujikuroi) | disease controlling index (Rhizoctonia solani [1]) | Index (disease controlling index) (Venturia inaequalis) | Index (disease controlling index) (Sphaerotheca fuliginea) | disease controlling index (Rhizoctonia solani [2]) | disease controlling index (Pyricularia oryzae) | disease controlling index [3] | disease controlling index (Puccinia recondita) | disease controlling index (Rhizoctonia solani [4]) | disease controlling index (Venturia inaequalis; apple seedlings, sprayed at 300 ppm (30 ml/3 pots) 24 hours before inoculation, diseased area on the third and fourth leaves)
C[C@@H](N=[N+]=[N-])[C@](O)(Cn1cncn1)c1ccc(Cl)cc1 (relative stereo) [Example 63, (2R*, 3R*)-3-Azido-2-(4-chlorophenyl)-1-(1H-1,2,4-triazol-1-yl)-2-butanol] | 5 |  |  |  |  |  |  |  |  | 
C[C@@H](NC(=O)c1ccc(Cl)cc1Cl)[C@](O)(Cn1cncn1)c1ccc(Cl)cc1Cl (relative stereo) [Example 11, (2R*, 3R*)-3-(2,4-Dichlorobenzoylamino)-2-(2,4-dichlorophenyl)-1-(1H-1,2,4-triazol-1-yl)-2-butanol] | 4 (disease rate is less than 10% of the untreated plant) | 4 (disease rate is less than 10% of the untreated plant) | 5 | 5 |  |  |  |  |  | 
C[C@@H](CN=[N+]=[N-])[C@](O)(Cn1cncn1)c1ccc(Cl)cc1Cl (relative stereo) [Example 90, (2R*, 3S*)-4-Azido-2-(2,4-dichlorophenyl)-3-methyl-1-(1H-1,2,4-triazol-1-yl)-2-butanol] | 5 | 5 |  |  | 5 | 5 |  |  |  | 
C[C@@H](NC(=O)c1ccc(F)cc1)[C@](O)(Cn1cncn1)c1ccc(F)cc1F (relative stereo) [Example 15, (2R*, 3R*)-2-(2,4-Difluorophenyl)-3-(4-fluorobenzoylamino)-1-(1H-1,2,4-triazol-1-yl)-2-butanol] | 4 (disease rate is less than 10% of the untreated plant) |  |  | 5 |  |  | 5 | 5 |  | 
C[C@@H](NC(=O)c1ccc(C(F)(F)F)cc1)[C@](O)(Cn1cncn1)c1ccc(Cl)cc1Cl (relative stereo) [Example 12, (2R*, 3R*)-2-(2,4-Dichlorophenyl)-1-(1H-1,2,4-triazol-1-yl)-3-(4-trifluoromethylbenzoylamino)-2-butanol] | 4 (disease rate is less than 10% of the untreated plant) | 5 | 5 | 5 |  | 5 | 5 | 5 | 5 | 
C[C@@H](NC(=O)c1ccc(C(F)(F)F)cc1)[C@](O)(Cn1cncn1)c1ccc(Cl)cc1Cl [Example 13, (2R, 3R)-2-(2,4-Dichlorophenyl)-3-(4-trifluoromethylbenzoylamino)-1-(1H-1,2,4-triazol-1-yl)-2-butanol] | 5 | 4 (disease rate is less than 10% of the untreated plant) |  | 5 |  | 5 | 5 | 5 |  | 
O=C(NCC(O)(Cn1cncn1)c1ccc(Cl)cc1Cl)c1ccc(Cl)cc1 (stereo not shown) [Compound X, 3-(4-chlorobenzoylamino)-2-(2,4-dichlorophenyl)-1-(1H-1,2,4-triaiol-1-yl)-2-propanol, reference compound] |  |  |  |  | 0 | 0 |  |  | 0 | 
C[C@@H](N1C(=O)c2ccc(Cl)cc2C1=O)[C@](O)(Cn1cncn1)c1ccc(F)cc1F (relative stereo) [Example 135, (2R*, 3R*)-2-(2,4-Difluorophenyl)-3-(4-chlorophthalimido)-1-(1H-1,2,4-triazol-1-yl)-2-butanol] | 4 (disease rate is less than 10% of the untreated plant) |  |  | 5 |  | 4 (disease rate is less than 10% of the untreated plant) | 5 | 5 |  | 
CC[C@@H](OC1CCCCO1)[C@](O)(Cn1cncn1)c1ccc(F)cc1F (relative stereo) [Example 202, (2R^*, 3R*)-2-(2,4-Difluorophenyl)-3-tetrahydropyranyloxy)-1-(1H-1,2,4-triazol-1-yl)-2-pentanol] |  | 4 (disease rate is less than 10% of the untreated plant) |  |  |  | 4 (disease rate is less than 10% of the untreated plant) | 5 | 5 | 4 (disease rate is less than 10% of the untreated plant) | 
C[C@@H](NC(=O)c1ccc(F)cc1)[C@](O)(Cn1cncn1)c1ccc(Cl)cc1Cl (relative stereo) [Example 4, (2R*, 3R*)-2-(2,4-Dichlorophenyl)-3-(4-fluorobenzoylamino)-1-(1 H-1 ,2,4-triazol-1-yl)-2-butanol] |  | 4 (disease rate is less than 10% of the untreated plant) | 5 |  |  |  | 5 | 5 |  | 
C[C@@H](NC(=O)c1ccc(Cl)cc1)[C@](O)(Cn1cncn1)c1ccc(F)cc1F (relative stereo) [Example 16, (2R*, 3R*)-3-(4-Chlorobenzoylamino)-2-(2,4-difluorophenyl)-1-(1 H-1 ,2,4-triazol-1-yl)-2-butanol] | 4 (disease rate is less than 10% of the untreated plant) | 5 |  | 5 |  | 5 | 5 | 5 | 5 | 5
